Patent US9173915B1, “Antioxidant eye drops” (priority 2014, dated 2015)
Where two headings read alike, the source gives them in different places.

Key:
human RPE19 cells = test system: human RPE19 cells; set-up: unit of the concentration uncertain; settings: cited from earlier work
[1] = test system: lens oxidative stress after UV irradiation; experiment: UV-induced cataract model: lens GSH and 4-HNE after UV irradiation; format: in vivo, Sprague Dawley rats
Excerpt: Exposure to UV irradiation is another major risk factor of cataractogenesis. UV-irradiation induces ROS, which results in a rapid loss of reduced lens gluthione (GSH), the major antioxidant in the lens, followed several weeks later by subsequent lens opacification. For this study, young female Sprague Dawley rats were divided into five equal groups. One group served as the non-irradiated control group, while the second group served as the untreated irradiated control group. The third group received topical Optixcare carbomer vehicle containing 3% JHX-4 (4-(5-hydroxypyrimidin-2-yl)-N,N-dimethyl-3,5-dioxopiperazine-1-sulfonamide (99% pure by HPLC), the fourth received the present antioxidant eye drops composition, prepared as described above and referred to as topical Optixcare EH, and the fifth group received 1 mL of the oral Ocu-GLO™ by gavage, as described above. Treatments began 3 days prior to irradiation and continued until termination of the experiment. Prior to irradiation, each rat was anesthetized by intraperitoneal (i.p.) injection of a mixture of 60 mg/kg of ketamine and 10 mg/kg of xylazine, and the right eye was dilated with 1% tropicamide ophthalmic solution. The contralateral eye was covered with an eye patch that was held in place with black tape. […] Protein levels in an aliquot of the supernatant were measured according to Bradford Assay. Another aliquot was deproteinized with equal volume of 20% TCA and the GSH levels in the deproteinized supernatants were measured at 412 nm according to the DTNB method.
To confirm that the reduced GSH levels after UV exposure were linked to increased levels of ROS, the lenticular levels of the oxidized membrane lipid 4-hydroxynonenol (4-HNE) were determined using a competitive ELISA in the remaining homogenate supernatants by using the OxiSelect HINE Adduct Competitive ELISA Assay Kit (Cell Biolabs, Inc., San Diego, Calif.) according to the manufacturer's instructions.

[2] = test system: neural retina oxidative stress / photoreceptor layer; experiment: Light-induced retinal degeneration in dark adapted rats; format: in vivo, Wistar rats
Excerpt: In the neural retina of dark adapted rats, exposure to light also results in the generation of ROS, iron dysregulation, and the release of iron from ferritin. In this animal model of age-related macular degeneration (AMD), Wistar rats were either orally treated with diet containing 0.05% of the multifunctional antioxidant JHX-4 or topically treated b.i.d. with Optixcare EH, with treatment beginning at the onset of two weeks of dark adaption.
As previously described in detail by Randazzo et al. (PLoS One, 2011, 6(7), p. e21926), groups containing twelve 4-5-week-old male Wistar rats receiving either normal rat chow (untreated), normal rat chow and topically treated with Optixcare EH b.i.d., or oral diet containing 0.05% of the multifunctional antioxidant JHX-4 were dark adapted for two weeks. Rats from each group were then individually placed into acrylic, flat bottom rodent restraints (Plas-labs, Inc., Lansing Mich.) in a light box apparatus and exposed for three hours to 1000 1× of cool white fluorescent lights (Lights of America, Los Angeles, Calif.). An additional group of non-treated rats were also placed into the light box apparatus for three hours, but not exposed to light (non-light-damaged rats, NLD). Immediately following light exposure, 8 light-damaged (LD) rats from each group and 8 NLD rats were immediately euthanized and the neural retinas were carefully dissected from the enucleated eye and frozen on dry ice for subsequent analysis. Subsequently, the thawed retinas were homogenized in lysis buffer for ELISA determinations using 4-HNE-His Adduct and Nitrotyrosine ELISA Kits. Additional thawed retinas were homogenized in RIPA buffer containing Halt Protease and Phosphatase Inhibitor Cocktail for western blot analysis of thioredoxin (TRx) and thioredoxin reductase (TRxR) expression levels. Protein samples were separated by SDS-PAGE and transferred onto nitrocellulose membranes. After blocking the membrane with 5% dry milk in 0.1% TBS-T, the membranes were then incubated overnight at 4° C. with the primary antibodies anti-TRx (1:1000 dilution) or anti-TRxR (1:2000 dilution). Subsequently, after washing with TBS-T, the membranes were incubated with a HRP-conjugated secondary antibody for 1 hour. The protein bands were visualized by chemiluminescence and exposure to x-ray film. Finally, the membranes were re-probed with antibody against GAPDH as an internal control. All visualized protein levels were quantified using the NIH ImageJ program available online at rsbweb.nih.gov/ij/.
Therefore, topical administration of Optixcare EH to light-exposed dark-adapted rats was not anticipated to result in any significant protection of retinal oxidative stress compared to the oral administration of the multifunctional antioxidant JHX-4. […] ROS and free radicals generated by retinal exposure to acute excessive light are also mediated by the thioredoxin (TRx)/thioredoxin reductase (TRxR) defense system. Therefore, the expression levels of both TRx and TRxR in the neural retinas of these rats were also examined.
The reduction of oxidative stress by JHX-4 and Optixcare EH was confirmed by histological measurements of the photoreceptor layers. After light exposure as described above, select rats in each group were returned to the dark environment for 7 additional days. Each rat was then euthanized by carbon dioxide asphyxiation, and the dorsal ventral orientation of each eye was marked with a cautery tool. […]

[3] = after 3 hours light exposure, ELISA

Structure (SMILES)	reduction of in vitro proliferation of human RPE19 cells (human RPE19 cells; 50 (unit uncertain)) [%]	reduction of in vitro proliferation of human RPE19 cells (human RPE19 cells; 100 (unit uncertain)) [%]	lenticular 4-HNE levels vs untreated rats exposed to UV irradiation (FIG. 4) ([1]; UV exposed lenses, competitive ELISA)	4-HNE lens levels, UV exposed vs unexposed contralateral eyes ([1]; competitive ELISA)	lens GSH levels, UV irradiated eye vs unexposed contralateral lens (FIG. 3) ([1]; pretreated 3 days, two days after 15 minutes UV irradiation)	photoreceptor layer (outer nuclear layer thickness), histology ([2]; 7 days in the dark after light exposure)	4-HNE-histidine adduct levels in the neural retina (FIG. 5A) [2, 3]	nitrotyrosine adduct levels in the neural retina (FIG. 5B) [2, 3]	expression of thioredoxin (TRx) in the neural retina (FIG. 6A) ([2]; light exposed rats, western blot)	expression of thioredoxin reductase (TRxR) in the neural retina (FIG. 6B) ([2]; light exposed rats, western blot, p<0.05)
Oc1ccc(C=Cc2cc(O)cc(O)c2)cc1 [resveratrol]	10	25								
CN(C)S(=O)(=O)N1CC(=O)N(c2ncc(O)cn2)C(=O)C1 [JHX-4, 4-(5-hydroxypyrimidin-2-yl)-N,N-dimethyl-3,5-dioxopiperazine-1-sulfonamide]			significantly lower	statistically similar	not significantly lower	only slightly decreased	neither oxidative marker significantly increased	neither oxidative marker significantly increased	reduced	significantly lowered
